pIC50: −log10 of the molar value.
Legend:
[1] = biological target: dephosphorylated FGFR2 (Homo sapiens (Human), UniProt P21802); assay: FGFR enzyme binding assay (HTRF tracer displacement), FGFR2; conditions: 5 nM dephosphorylated FGFR2, average of multiple determinations if made
Experimental: The potency of compounds inhibiting human isoforms of FGFR kinase was determined using Life Technologies' Homogeneous Time Resolved Fluorescence (HTRF)-based binding assay technology. […] After a 60 minute incubation at 22° C., the extent of tracer displacement was determined using a PerkinElmer EnVision multimode plate reader via HTRF dual wavelength detection, and the percent of control (POC) was calculated using a ratiometric emission factor. One hundred POC was determined using no test compound, and 0 POC was determined in the presence of 1 μM of an appropriate control inhibitor.

[2] = biological target: phosphorylated FGFR3 (SEQ ID NO: 5, amino acids 449 to 759) (Homo sapiens (Human), UniProt P22607); assay: FGFR enzyme binding assay (HTRF tracer displacement), FGFR3; conditions: 5 nM phosphorylated FGFR3, average of multiple determinations if made
How it was run: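 Kinase and tracer were incubated with compound for 60 minutes at 22° C. Tracer displacement was then measured by HTRF, and results were expressed as POC with 1 μM control inhibitor defining full displacement.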

[3] = biological target: recombinant human FGFR1 catalytic domain (amino acids 308-731) (Homo sapiens (Human), UniProt P11362); assay: FGFR1 enzyme activity assay (LanthaScreen TR-FRET); type: biochemical; conditions: 20 min incubation at 22° C., average of multiple determinations if made, read-out: FGFR1 Enz FRET IC50
How it was run: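 His-tagged FGFR1 kinase domain with 100 nM Alexa Fluor 647-poly-GT peptide and ATP in pH 7.5 HEPES/MgCl2 buffer with 2% DMSO, 20 min at 22 °C. Quenched with EDTA plus 2 nM Eu-PY20 antibody and read after 60 min. IC50 comes from a 4-parameter fit of percent of control.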

[4] = biological target: recombinant human FGFR2 cytoplasmic domain (amino acids 403-822) (Homo sapiens (Human), UniProt P21802); assay: FGFR2 enzyme activity assay (LanthaScreen TR-FRET); type: biochemical; conditions: 15 μM ATP, 20 min incubation at 22° C., average of multiple determinations if made, read-out: FGFR2 Enz FRET IC50
How it was run: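 Substrate phosphorylation was read by TR-FRET using Eu-PY20 antibody (60 min, 22 °C) after a 20 min, 22 °C reaction. The reaction used 15 μM ATP, 100 nM fluorescent poly-GT peptide and His-tagged FGFR2 403-822 ([…]) at pH 7.5 with 2% DMSO.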

[5] = biological target: HEK-293 cells transfected with dox-inducible human wild type FGFR3 (Homo sapiens (Human), UniProt P22607); assay: FGFR3 pERK cell assay; type: cell-based; conditions: HEK-293 dox-inducible FGFR3, 1 hour compound, 100 ng/ml FGF-acidic; maximum concentration 5 μM
Experimental: FGFR3 pERK Cell Assay: • HEK-293 cells transfected with dox-inducible human wild type FGFR3 (SEQ ID NO: 5) were plated in a collagen or poly-D-lysine coated 96 well flat bottom plates at 4×10^5 cells/well in complete DMEM medium containing 10% FBS and 1 μg/ml doxycycline and allowed to attach for 24 h at 37° C., 5% CO2. Cells were treated with compound using 1:3 serial dilutions with a maximum final concentration of 5 μM. Compound was incubated on cells for 1 hour at 37° C., 5% CO2. Cells were then stimulated with a final concentration of 100 ng/ml human FGF-acidic (R&D Systems Cat number 232-FA/CF) for 5 minutes at 37° C., 5% CO2. Medium was removed, and cells were lysed with lysis buffer containing phosphatase and protease inhibitors. Phospho ERK1/2 was measured using the Meso Scale Discovery sandwich assay (Meso Scale Discovery cat. no. K151DWD). The assay captures phospho ERK1/2 and detects with a sulfo-tagged total ERK1/2 antibody. The chemiluminescent signal was read on the Sector Imager Plate reader. 100 POC was determined using no test compounds and 0 POC was determined using a control compound. The POC values were fit to a 4-parameter logistic curve as a function of the concentration of the compound, and the IC50 value is the point where the curve crosses 50 POC.

recombinant human FGFR2 cytoplasmic domain (amino acids 403-822), sequence (P21802 402-821): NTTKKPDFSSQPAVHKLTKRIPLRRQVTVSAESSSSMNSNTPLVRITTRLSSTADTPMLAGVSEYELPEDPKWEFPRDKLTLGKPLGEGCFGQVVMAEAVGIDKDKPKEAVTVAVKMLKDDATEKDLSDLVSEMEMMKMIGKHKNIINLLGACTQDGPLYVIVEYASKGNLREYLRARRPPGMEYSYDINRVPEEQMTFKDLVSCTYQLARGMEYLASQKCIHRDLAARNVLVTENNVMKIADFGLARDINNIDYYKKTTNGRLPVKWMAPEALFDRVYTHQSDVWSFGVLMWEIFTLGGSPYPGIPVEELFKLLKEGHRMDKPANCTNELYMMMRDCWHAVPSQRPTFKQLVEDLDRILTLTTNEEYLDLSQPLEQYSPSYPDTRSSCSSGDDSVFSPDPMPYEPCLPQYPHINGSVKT
recombinant human FGFR1 catalytic domain (amino acids 308-731), sequence (P11362 other isoform, or with tags, fused parts or gaps): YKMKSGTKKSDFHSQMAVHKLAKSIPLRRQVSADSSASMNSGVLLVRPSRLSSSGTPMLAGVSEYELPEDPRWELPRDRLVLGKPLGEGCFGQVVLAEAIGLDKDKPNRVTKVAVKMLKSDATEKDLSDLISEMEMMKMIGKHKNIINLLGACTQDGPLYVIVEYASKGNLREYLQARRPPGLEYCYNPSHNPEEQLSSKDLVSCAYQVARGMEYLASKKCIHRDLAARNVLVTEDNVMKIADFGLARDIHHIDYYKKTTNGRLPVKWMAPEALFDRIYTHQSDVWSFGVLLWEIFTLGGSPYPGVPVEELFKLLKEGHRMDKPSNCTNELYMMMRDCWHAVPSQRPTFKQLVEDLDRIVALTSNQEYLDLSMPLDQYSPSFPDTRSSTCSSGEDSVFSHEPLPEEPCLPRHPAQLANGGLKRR
HEK-293 cells transfected with dox-inducible human wild type FGFR3, sequence (P22607 23-806): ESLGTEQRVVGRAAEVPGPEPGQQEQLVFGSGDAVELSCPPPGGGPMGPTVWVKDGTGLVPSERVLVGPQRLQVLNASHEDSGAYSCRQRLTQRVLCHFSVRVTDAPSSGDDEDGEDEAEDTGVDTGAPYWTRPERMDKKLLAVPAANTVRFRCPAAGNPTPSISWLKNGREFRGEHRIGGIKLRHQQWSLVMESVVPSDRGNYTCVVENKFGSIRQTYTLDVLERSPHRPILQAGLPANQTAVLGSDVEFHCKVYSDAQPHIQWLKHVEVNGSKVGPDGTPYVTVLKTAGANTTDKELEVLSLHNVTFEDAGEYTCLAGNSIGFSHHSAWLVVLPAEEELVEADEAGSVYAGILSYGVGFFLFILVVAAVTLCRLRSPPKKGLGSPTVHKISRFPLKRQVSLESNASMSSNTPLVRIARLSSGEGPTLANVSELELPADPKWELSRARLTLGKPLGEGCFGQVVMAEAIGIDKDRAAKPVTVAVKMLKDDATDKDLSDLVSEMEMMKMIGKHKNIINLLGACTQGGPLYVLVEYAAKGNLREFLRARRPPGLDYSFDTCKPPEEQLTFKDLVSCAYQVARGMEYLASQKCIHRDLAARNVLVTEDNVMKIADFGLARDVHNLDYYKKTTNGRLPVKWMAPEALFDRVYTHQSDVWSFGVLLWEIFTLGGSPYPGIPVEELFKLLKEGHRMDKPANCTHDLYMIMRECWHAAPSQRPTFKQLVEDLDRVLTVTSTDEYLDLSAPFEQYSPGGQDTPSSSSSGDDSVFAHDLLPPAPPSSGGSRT
phosphorylated FGFR3 (SEQ ID NO: 5, amino acids 449 to 759), sequence (P22607 449-759): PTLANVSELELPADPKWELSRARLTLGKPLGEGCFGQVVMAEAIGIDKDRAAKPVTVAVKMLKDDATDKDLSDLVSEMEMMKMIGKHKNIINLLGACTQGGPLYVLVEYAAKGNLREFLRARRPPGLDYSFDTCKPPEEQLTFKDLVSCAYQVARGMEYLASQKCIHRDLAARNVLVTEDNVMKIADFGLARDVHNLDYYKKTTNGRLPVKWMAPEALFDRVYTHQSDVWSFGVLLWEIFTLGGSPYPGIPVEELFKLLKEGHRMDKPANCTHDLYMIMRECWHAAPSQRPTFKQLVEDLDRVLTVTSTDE
dephosphorylated FGFR2, sequence (P21802 22-821): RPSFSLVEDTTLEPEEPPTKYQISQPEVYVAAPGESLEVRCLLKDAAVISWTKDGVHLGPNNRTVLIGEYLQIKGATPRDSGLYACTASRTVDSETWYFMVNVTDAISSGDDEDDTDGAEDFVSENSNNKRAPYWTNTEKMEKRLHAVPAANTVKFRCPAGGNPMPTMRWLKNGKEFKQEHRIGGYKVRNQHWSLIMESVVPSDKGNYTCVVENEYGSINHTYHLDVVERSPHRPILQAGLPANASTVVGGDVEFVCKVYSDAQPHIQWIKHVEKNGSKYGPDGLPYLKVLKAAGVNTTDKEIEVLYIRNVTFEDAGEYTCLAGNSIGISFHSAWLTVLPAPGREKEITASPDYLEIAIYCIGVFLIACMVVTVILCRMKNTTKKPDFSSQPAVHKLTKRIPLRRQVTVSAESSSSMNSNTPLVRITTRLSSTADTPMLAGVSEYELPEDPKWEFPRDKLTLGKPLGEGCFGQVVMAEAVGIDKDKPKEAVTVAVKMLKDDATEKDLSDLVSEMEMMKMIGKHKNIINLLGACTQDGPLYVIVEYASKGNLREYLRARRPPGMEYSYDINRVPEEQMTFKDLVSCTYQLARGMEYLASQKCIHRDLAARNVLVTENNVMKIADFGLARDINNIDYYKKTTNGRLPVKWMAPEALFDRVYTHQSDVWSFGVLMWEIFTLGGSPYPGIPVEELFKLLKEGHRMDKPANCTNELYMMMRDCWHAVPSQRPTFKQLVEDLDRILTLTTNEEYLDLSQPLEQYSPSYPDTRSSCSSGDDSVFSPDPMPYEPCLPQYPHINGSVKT

Row | Structure (SMILES) | pIC50 [1] | pIC50 [2] | pIC50 [3] | pIC50 [4] | pIC50 [5]
1 | C=CC(=O)N1CC(OC)(C(=O)N2CCC(n3nc(C)c(-c4cc(OC)c5c(C#N)cnn5c4)c3C)CC2)C1 [Example 95, 6-(1-(1-(1-acryloyl-3-methoxyazetidine-3-carbonyl)piperidin-4-yl)-3,5-dimethyl-1H-pyrazol-4-yl)-4-methoxypyrazolo[1,5-a]pyridine-3-carbonitrile] | 6.81 | 7.59 | 6.07 | 6.49 | 7.01
2 | C=CC(=O)N1CC(F)(C(=O)N2CCC(n3ncc(-c4cc(OC)c5c(C#N)cnn5c4)c3CC)CC2)C1 [Example 96, 6-(1-(1-(1-acryloyl-3-fluoroazetidine-3-carbonyl)piperidin-4-yl)-5-ethyl-1H-pyrazol-4-yl)-4-methoxypyrazolo[1,5-a]pyridine-3-carbonitrile] | – | 7.14 | 6.42 | 6.81 | 6.45
3 | C=CC(=O)N1CC(C(=O)N2CCC(n3cc(-c4cc(OC)c5c(C#N)cnn5c4)c(CC)n3)CC2)C1 [Example 97, 6-(1-(1-(1-acryloylazetidine-3-carbonyl)piperidin-4-yl)-3-ethyl-1H-pyrazol-4-yl)-4-methoxypyrazolo[1,5-a]pyridine-3-carbonitrile] | – | 7.28 | 6.93 | 7.42 | 6.42
4 | C=CC(=O)N1CC(C(=O)N2CCN(c3ccc(-c4cc(OC)c5c(C#N)cnn5c4)cc3)CC2)C1 [Example 100, 6-(4-(4-(1-acryloylazetidine-3-carbonyl)piperazin-1-yl)phenyl)-4-methoxypyrazolo[1,5-a]pyridine-3-carbonitrile] | – | 8.30 | 8.05 | 8.30 | 7.68
5 | C=CC(=O)N1CC(C(=O)N2CCC3(CC2)CN(c2ccc(-c4cc(OC)c5c(C#N)cnn5c4)cn2)C3)C1 [Example 102, 6-(6-(7-(1-acryloylazetidine-3-carbonyl)-2,7-diazaspiro[3.5]nonan-2-yl)pyridin-3-yl)-4-methoxypyrazolo[1,5-a]pyridine-3-carbonitrile] | 7.66 | 8.22 | 7.42 | 7.96 | 7.36
6 | C=CC(=O)N1CC(C(=O)N2CCN(c3ccc(-c4cc(OC)c5c(C#N)cnn5c4)cn3)CC2)C1 [Example 111, 6-(6-(4-(1-acryloylazetidine-3-carbonyl)piperazin-1-yl)pyridin-3-yl)-4-methoxypyrazolo[1,5-a]pyridine-3-carbonitrile] | – | 7.96 | 7.92 | 8.40 | 7.47
7 | C=CC(=O)N1CC(C(=O)N2CCN(c3ncc(-c4cc(OC)c5c(C#N)cnn5c4)cc3C)CC2)C1 [Example 113, 6-(6-(4-(1-acryloylazetidine-3-carbonyl)piperazin-1-yl)-5-methylpyridin-3-yl)-4-methoxypyrazolo[1,5-a]pyridine-3-carbonitrile] | – | 7.35 | 6.97 | 7.38 | 6.73
8 | C=CC(=O)N1CC(F)(C(=O)N2CCN(c3cc(C)c(-c4cc(OC)c5c(C#N)cnn5c4)cn3)CC2)C1 [Example 114, 6-(6-(4-(1-acryloyl-3-fluoroazetidine-3-carbonyl)piperazin-1-yl)-4-methylpyridin-3-yl)-4-methoxypyrazolo[1,5-a]pyridine-3-carbonitrile] | – | 7.20 | 6.51 | 6.82 | 6.61
9 | C=CC(=O)N1CC(C(=O)N2CCN(c3ccc(-c4cc(OC)c5c(C#N)cnn5c4)nn3)CC2)C1 [Example 115, 6-(6-(4-(1-acryloylazetidine-3-carbonyl)piperazin-1-yl)pyridazin-3-yl)-4-methoxypyrazolo[1,5-a]pyridine-3-carbonitrile] | – | 7.96 | 7.07 | 7.60 | 5.91
10 | C=CC(=O)N1CC(C(=O)N2CCN(c3cnc(-c4cc(OC)c5c(C#N)cnn5c4)cn3)CC2)C1 [Example 116, 6-(5-(4-(1-acryloylazetidine-3-carbonyl)piperazin-1-yl)pyrazin-2-yl)-4-methoxypyrazolo[1,5-a]pyridine-3-carbonitrile] | – | 7.72 | 7.27 | 7.72 | 6.79
11 | C=CC(=O)N1CC(C(=O)N2CCC(n3cc(-c4cc(OC)c5c(Cl)cnn5c4)cn3)CC2)C1 [Example 122, 1-(3-(4-(4-(3-chloro-4-methoxypyrazolo[1,5-a]pyridin-6-yl)-1H-pyrazol-1-yl)piperidine-1-carbonyl)azetidin-1-yl)prop-2-en-1-one] | – | 8.15 | 7.55 | 7.92 | 7.28
12 | C=CC(=O)N1CC(S(=O)(=O)N2CCC(n3cc(-c4cc(OC)c5c(C#N)cnn5c4)cn3)CC2)C1 [Example 134, 6-(1-(1-((1-acryloylazetidin-3-yl)sulfonyl)piperidin-4-yl)-1H-pyrazol-4-yl)-4-methoxypyrazolo[1,5-a]pyridine-3-carbonitrile] | – | 8.70 | 8.30 | 7.80 | 7.89
13 | C#CC(=O)N1CC(C(=O)N2CCC(n3cc(-c4cc(OC)c5c(C#N)cnn5c4)cn3)CC2)C1 [Example 138, 4-methoxy-6-(1-(1-(1-propioloylazetidine-3-carbonyl)piperidin-4-yl)-1H-pyrazol-4-yl)pyrazolo[1,5-a]pyridine-3-carbonitrile] | – | 8.70 | 8.15 | 8.52 | 7.80
14 | COc1cc(-c2cnn(C3CCN(CC4CN(C(=O)/C=C/CN(C)C)C4)CC3)c2)cn2ncc(C#N)c12 [Example 146, (E)-6-(1-(1-((1-(4-(dimethylamino)but-2-enoyl)azetidin-3-yl)methyl)piperidin-4-yl)-1H-pyrazol-4-yl)-4-methoxypyrazolo [1,5-a]pyridine-3-carbonitrile] | – | 8.40 | 7.92 | 8.70 | 7.02
15 | COc1cc(-c2cnc(N3CCN(C(=O)C4(F)CN(C(=O)/C=C/CN(C)C)C4)CC3)cc2C)cn2ncc(C#N)c12 [Example 169, (E)-6-(6-(4-(1-(4-(dimethylamino)but-2-enoyl)-3-fluoroazetidine-3-carbonyl)piperazin-1-yl) -4-methylpyridin-3-yl)-4-methoxypyrazolo [1,5-a]pyridine-3-carbonitrile] | – | 7.31 | 6.81 | 7.10 | 6.76
16 | C=CC(=O)N(C)c1ccc(C(=O)N2CCC(n3cc(-c4cc(OC)c5c(C#N)cnn5c4)cn3)CC2)cc1 [Example 178, N-(4-(4-(4-(3-cyano-4-methoxypyrazolo[1,5-a]pyridin-6-yl)-1H-pyrazol-1-yl)piperidine-1-carbonyl)phenyl)-N-methylacrylamide] | – | 8.10 | 7.85 | 8.30 | –
17 | COc1cc(-c2cnn(C3CCN(C(=O)C4CN(C(=O)/C=C/CBr)C4)CC3)c2)cn2ncc(C#N)c12 [Example 180, (E)-6-(1-(1-(1-(4-bromobut-2-enoyl)azetidine-3-carbonyl)piperidin-4-yl)-1H-pyrazol-4-yl)-4-methoxypyrazolo[1,5-a]pyridine-3-carbonitrile] | – | 8.70 | 7.72 | – | 7.35
18 | C=CS(=O)(=O)N1CCC(C(=O)N2CCC(n3cc(-c4cc(OC)c5c(C#N)cnn5c4)cn3)CC2)CC1 [Example 186, 4-methoxy-6-(1-(1-(1-(vinylsulfonyl)piperi-dine-4-carbonyl)piperidin-4-yl)-1H-pyrazol-4-yl)pyrazolo[1,5-a]pyridine-3-carbonitrile] | – | 8.70 | 8.30 | 8.10 | 8.22
